Reference: patent US20250169495A1, “COMPOSITIONS AND METHODS FOR CONTROLLING DROSOPHILA FLIES” (Rutgers, The State University of New Jersey, priority 2023, published 2025)

Experiments:
Format in all cases: in vivo
[1] = tested on: Drosophila suzukii adults; experiment: Multiple choice bioassay #1: anthracnose-induced volatiles, gated traps with blueberries; details: 50 μL neat volatile added to blueberry fruit in gated trap; 15 traps per arena; 24 h; n=4
Protocol: These bioassays were done in arenas that consisted of a dome cage (60 cm width×60 cm length x 60 cm height; BugDorm-2120 Insect tent; shop.bugdorm.com) (FIG. 1A). Within each arena, 15 gated traps were positioned randomly in a circle (40 cm diameter) at equal distance with each trap 8.4 cm apart along the circumference (FIG. 1A). Each gated trap consisted of 50 mL polystyrene tubes (Fisher Scientific, Nazareth, PA, USA) covered with aluminum foil and sealed with Parafilm®, with a 4 mm-diameter hole in the center of the Parafilm to provide an entrance to flies. All traps had equal quantities (ca. 5 g) of store-bought organic blueberry fruit (n=5); fruit were sterilized with bleach prior to the study (10% bleach for 2 min, rinsed three times in distilled water). One of the 15 traps served as a control (with blueberry fruit only) and the remaining 14 traps had one of the anthracnose volatile compounds added to the blueberry fruit. The 14 compounds tested were: 3-hydroxy-2-butanone, styrene, (E)-2-hexen-1-ol, ethyl 3-hydroxy-3-methylbutanoate, 2-methyl-1-butanol, ethyl propanoate, 2-methyl-1-propanol, diethyl carbonate, 2-methylpropanal, 3-methyl-1-butanol, ethyl 2-methylpropanoate, ethyl butanoate, ethyl (E)-but-2-enoate, and 3-methyl-3 buten-1-ol (see Results). Each volatile (50 μL, neat) was released from a 1 mL polyethylene vial (Globe Scientific Inc., Paramus, NJ, USA) with a piece of cotton placed inside each trap (control traps had vials with cotton but without the volatile). A vial with a cotton ball soaked with deionized water was placed in the middle of the arena to provide flies with water during the experiment. Roughly 300 D. suzukii adults (1:1 male: female ratio) were released inside each arena and the number and sex of flies inside treatment and control traps was recorded after 24 h. The experiment started at 1:00 p.m., was replicated 4 times, and was done in a laboratory under 22+2° C., 55+5% RH, 16:8 (L:D) h.
Data from multiple choice assays on the percent of male and female D. suzukii adults responding to each volatile were compared using ANOVA (Minitab version 17; Minitab Inc., State College, PA, USA). The ANOVA model included treatment, sex, and their interaction as fixed factors and block (replicate) as a random factor. A multi-comparison Tukey test (Minitab) was used to determine differences among treatments. Percent data were arcsine square-root transformed prior to ANOVA. Pairwise choice assays were analyzed using G-tests with William's correction. Non-responders were excluded from the statistical analyses.

[2] = tested on: Drosophila suzukii adults; experiment: Multiple choice bioassay #2: known and putative repellents; details: 50 μL neat; six traps per arena; 24 h; n=6
Protocol: Within each arena, six gated traps were positioned randomly in a circle (40 cm diameter) at equal distance with each trap 20 cm apart along the circumference. Each gated trap contained ˜5 g of store-bought organic blueberry fruit (n=5), as described elsewhere herein. One of the six traps served as a control (with blueberry fruit only) and the remaining five traps had one of the repellents added to the blueberry fruit. Each volatile (50 μL, neat) was released from a 1 mL polyethylene vial with a piece of cotton placed inside each trap (control traps had vials with cotton but without the volatile). A vial with a cotton ball soaked with deionized water was placed in the middle of the arena. Roughly 150 D. suzukii adults (1:1 male: female ratio) were released inside each arena and the number and sex of flies inside treatment and control traps was recorded after 24 h. The experiment started at 1:00 p.m., was replicated 6 times, and was done in a laboratory under 22±2° C., 55±5% RH, 16:8 (L:D) h. Data from multiple choice assays on the percent of male and female D. suzukii adults responding to each volatile were compared using ANOVA (Minitab version 17; Minitab Inc., State College, PA, USA). The ANOVA model included treatment, sex, and their interaction as fixed factors and block (replicate) as a random factor. A multi-comparison Tukey test (Minitab) was used to determine differences among treatments. Percent data were arcsine square-root transformed prior to ANOVA. Pairwise choice assays were analyzed using G-tests with William's correction. Non-responders were excluded from the statistical analyses.

Drosophila suzukii = experiment: Field cage experiments, cultivated highbush blueberry bushes
Protocol: Field cage experiments were conducted from June until July using highbush blueberries (V. corymbosum var. ‘Bluecrop’). The studies were carried out in 5.5 m long×2.7 m tall cages, constructed with a PVC pipe frame covered with No-See-Um mesh (Quest Outfitters Inc., Sarasota, FL, USA) (FIG. 6C). Cages were placed in separate rows within a blueberry field, with bushes spaced approx. 0.76 m apart within the rows and 3.05 m between rows. Each row contained two cages at least 9 m in distance. To avoid interference between treatments, alternate cages were used during testing, ensuring that no adjacent cages contained sachets simultaneously. Two, 3-m rebar poles were used to reinforce the mesh on the long sides of each cage as well as 10 cm long garden staples to hold mesh flush to the ground, while the shorter ends were secured with clips to allow access to the cage. Each cage contained five blueberry bushes approx. 1.5 m in height. Sachets containing ethyl butanoate, ethyl (E)-but-2-enoate, or 2-pentylfuran were prepared as described before. To test the effects of the repellents on the treated (focal) bush and in neighboring bushes at various distances, two sachets of the same compound were hung from one of the end bushes in each cage (FIG. 6D). There were four treatments: 1) ethyl butanoate, 2) ethyl (E)-but-2-enoate, 3) 2-pentylfuran, and 4) control (no repellent). Each treatment was replicated four times, with each cage assigned to a single treatment, resulting in a total of 16 cages. Twenty-four hours after deploying the sachets, 120 flies (approximately 60 males and 60 females) were released into each cage at 18:00 hrs (N=120 flies×4 treatments×4 replicates=1,920 total flies). To ensure even distribution within the cages, 30 flies were released at four equidistant points between the bushes. A pre-sampling of the berries, conducted before the flies were released, confirmed the absence of any infestation. Berries were then collected 1-, 2-, and 3-days post-treatment. From every other bush (starting at the focal bush) in the cage, 50 berries from the top half and 50 from the bottom half were collected into two separate 236.6 mL deli containers lined with two cotton pads. From each berry sample, a random subsample of 10 berries were examined and egg counts recorded before being returned to the original container. The blueberries were incubated on a light bench in the laboratory for up to two weeks, as previously described, and adult emergence was recorded. The sachets were weighed before deployment and 3 days after deployment to measure the emission rates of each compound. Field cage data for both oviposition and adult emergence were non-normal, so non-parametric tests were applied using R statistical software. The effects of ‘Treatment’ (untreated control, ethyl butanoate, ethyl (E)-but-2-enoate, and 2-pentylfuran) across ‘Bush Position’ (focal, center, end) and ‘Day After Treatment’ (1, 2, 3 DAT) were assessed using the Kruskal-Wallis Test. When significant Treatment effects were found, post-hoc separation was performed using Dunn's Test.

| SMILES | number of flies captured relative to the control [1] | strength of repellency among the five repellents (rank) [2] | adult emergence (Drosophila suzukii; 1 DAT, center bush) | adult emergence (Drosophila suzukii; 1 DAT, end bush) | egg counts (Drosophila suzukii; 1 DAT, end bush) | adult emergence (Drosophila suzukii; 2 DAT, center bush) | egg counts (Drosophila suzukii; 2 DAT, center bush) | adult emergence (Drosophila suzukii; 2 DAT, end bush) | egg counts (Drosophila suzukii; 2 DAT, end bush) | adult emergence (Drosophila suzukii; 3 DAT, center bush) | egg counts (Drosophila suzukii; 3 DAT, center bush) | adult emergence (Drosophila suzukii; 3 DAT, end bush) | egg counts (Drosophila suzukii; 3 DAT, end bush) | adult emergence (Drosophila suzukii; 3 DAT, focal bush) | egg counts (Drosophila suzukii; 3 DAT, focal bush) | egg counts (Drosophila suzukii; 1 DAT, central bush) |
| --- | --- | --- | --- | --- | --- | --- | --- | --- | --- | --- | --- | --- | --- | --- | --- | --- |
| CCCC(=O)OCC [ethyl butanoate] | reduced the number of flies captured relative to the control |  |  |  |  |  |  |  |  |  |  |  |  |  |  |  |
| C/C=C/C(=O)OCC [ethyl (E)-but-2-enoate] | reduced the number of flies captured relative to the control | the most repellent | fewest adults emerge | fewest adults emerge | fewest eggs | fewest adults emerge | lowest egg counts | fewest adults emerge | lowest egg counts | lowest adult emergence | lowest egg count | significantly different compared to the other repellents | lowest egg count | lowest adult emergence | lowest egg count |  |
| CCCCCc1ccco1 [2-pentylfuran, reference compound] |  | the least repellent |  |  | fewest eggs |  |  |  |  | lowest adult emergence |  |  |  | lowest adult emergence |  | lower |
